Consider six molecules from patent US7541463B2, “Sulfur-containing naphthalimide derivatives” (East China University of Science and Technology, priority 2003, dated 2009).

Data set [1] relates to human hepatocellular carcinoma BEL-7402. In words: Growth inhibition of BEL-7402 cells (MTT or SRB assay). The data set is classed as cell-based. The note with it: read-out: Growth inhibition effect to BEL-7402 cell strain; for inhibition at 100 µM: 10^−4 M; for inhibition at 10 µM: 10^−5 M; for inhibition at 1 µM: 10^−6 M; for inhibition at 0.1 µM: 10^−7 M; for inhibition at 0.01 µM: 10^−8 M. As to the method: (§1) The procedure of MTT assay was as follows: appropriate amount of cells in log phase were seeded in 96-well plates (6000 cells/well, 15000 cells/well, 90ul/well) according to the growing rate. After cultured for 24 h, cells were exposed to serial dilutions of drugs in triplicate (10 ul/well). In addition, wells without cell, and wells without cell but with serial dilutions of drugs in case of using a colored-drug were set for zeroing. Then, the cells were cultured in 5% CO2 humidified incubator at 37° C. for 48 h. After treatment of drugs for 48 h, 20ul MTT (Sigma) which was diluted by normal saline to the concentration of 5 mg/ml was added to each well, 50ul/well 10%SDS-5% isobutanol-0.01% mol/LHCl was added after 4 h. After cultured overnight, absorbance was measured at 570 nm using a multiwell spectrophotometer. The inhibition effect of the compounds in test (percentage of growth inhibition) was calculated for each well: % inhibition=(OD570control cells−OD570treated cells)/OD570control cells×100%.
(§2) The procedure of SRB assay was as follows: appropriate amount of cells in log phase were seeded in 96-well plates according to the growing rate (90 ul/well). After cultured for 24 h, cells were exposed to serial dilutions of drugs in triplicate (10 ul/well). In addition, control wells of normal saline in corresponding concentrations and zeroing wells without cell were set. The cells were incubated in 5% CO2 humidified incubator at 37° C. After 72 h, the medium was removed and cells were fixed with cold 10% trichloric acid (TCA) at 4° C. for 1 h. The plates were washed with distilled water 5 times, and stained in room temperature with 4 mg/ml SRB (Sigma, diluted with 1% glacial acetic acid, 100 ul/well) for 15 minutes after air drying. SRB was then washed with 1% acetic acid 5 times. Plates were dried, followed by adding 150 ul/well Tris solution. Absorbance was measured at […] using a multiwell spectrophotometer. The inhibition effect of the compounds in test (percentage of growth inhibition) was calculated for each well: % inhibition=(A540control cells−A540treated cells)/A540control cells×100%.
(§3) The methods used were MTT assay or SRB assay.
(§4) The cell lines used were mice leukemia cell P388, human leukemia cell MOLT-4, human lung adenocarcinoma cell A-549, human gastric adenocarcinoma SGC-7901, human hepatocellular carcinoma BEL-7402 and human embryonal fibroblast WI-38 (commerially available from ATCC).
(§5) The exposure time to compounds was 48 h-72 h.

Data set [2] has as its system human lung adenocarcinoma cell A-549. The experiment in a line: Growth inhibition of A-549 cells, SRB protein staining assay. The data set is classed as cell-based. The note with it: read-out: Growth inhibition effect to A-549 cell strain; for inhibition at 100 µM: A549, 10^−4 M; for inhibition at 10 µM: A549, 10^−5 M; for inhibition at 1 µM: A549, 10^−6 M; for inhibition at 0.1 µM: A549, 10^−7 M; for inhibition at 0.01 µM: A549, 10^−8 M. As to the method: (§6) The cell growth inhibition of mice leukemia cell P388 was evaluated by MTT (microculture tetrozolium) assay, while the cell growth inhibition of human lung adenocarcinoma cell A-549 was evaluated by SRB (Sulforhodamine B) protein staining assay.
as §2, §4, §5
(The SRB assay estimates cell density from bound dye.)

The next data set deals with mice leukemia cell P388. In words: Growth inhibition of P388 cells, MTT assay. The data set is classed as cell-based. The settings on record: Mus musculus, read-out: Growth inhibition effect to P388 cell strain; for inhibition at 100 µM: 10^−4 M; for inhibition at 10 µM: 10^−5 M; for inhibition at 1 µM: 10^−6 M; for inhibition at 0.1 µM: 10^−7 M; for inhibition at 0.01 µM: 10^−8 M. How it is done:
as §6, §1, §4, §5
On the technique in general: Tetrazolium assays rely on reduction of a dye to a coloured formazan, in cell work by metabolically active cells.

The subject of data set [3] is human leukemia cell MOLT-4. The experiment in a line: Growth inhibition of MOLT-4 cells (MTT or SRB assay). The settings on record: read-out: Growth inhibition effect to MOLT-4 cell strain; for inhibition at 100 µM: 10^−4 M; for inhibition at 10 µM: 10^−5 M; for inhibition at 1 µM: 10^−6 M; for inhibition at 0.1 µM: 10^−7 M; for inhibition at 0.01 µM: 10^−8 M. The data set is classed as cell-based. How it is done:
as §1, §2, §3, §4, §5

The test system of data set [4] is human gastric adenocarcinoma SGC-7901. In words: Growth inhibition of SGC-7901 cells (MTT or SRB assay). The data set is classed as cell-based. The note with it: read-out: Growth inhibition effect to SGC-7901 cell strain; for inhibition at 100 µM: 10^−4 M; for inhibition at 10 µM: 10^−5 M; for inhibition at 1 µM: 10^−6 M; for inhibition at 0.1 µM: 10^−7 M; for inhibition at 0.01 µM: 10^−8 M. How it is done:
as §1, §2, §3, §4, §5

With `CN(C)CCN1C(=O)c2cccc3c2c(cc2nnsc23)C1=O` [compound 11, 5-(N′,N′-dimethylaminoethyl)-4H, 6H-benzo[de]-1,2,3,-thiadiazol[5,4-g]isoquinoline-4,6-diketone], the melting point – broadly, the temperature of the solid-liquid transition – fell in the range of 178 to 179 °C. In data set [1], the inhibition (in general, the percentage by which the read-out fell short of the control) at 100 µM was found to be 95.7%; the inhibition at 10 µM is 90.9%; the inhibition at 1 µM came to 74%; the inhibition at 0.1 µM turned out to be 20.1%. Besides, the inhibition at 0.01 µM in data set [1] is 24.4%. In data set [2], the inhibition at 100 µM came out at 95.7%, the inhibition at 10 µM was found to be 93.7%, the inhibition at 1 µM came to 94.5% and the inhibition at 0.1 µM was determined as 76.6%. Further, in data set [2], the inhibition at 0.01 µM was 20.2%. In the data set with mice leukemia cell P388, the inhibition at 100 µM stood at 98.7%, the inhibition at 10 µM amounted to 92.7%, the inhibition at 1 µM is 42.2% and the inhibition at 0.1 µM was determined as 13.8%. The inhibition at 0.01 µM in the data set with mice leukemia cell P388 was determined as 10.7%. In data set [3], the inhibition at 100 µM is 100%, the inhibition at 10 µM is 100%, the inhibition at 1 µM is 100% and the inhibition at 0.1 µM was found to be 82.8%. Also, the inhibition at 0.01 µM in data set [3] worked out at 0%. Besides, in data set [4], the inhibition at 100 µM was 96.5%, the inhibition at 10 µM was 97.1%, the inhibition at 1 µM was 38.9% and the inhibition at 0.1 µM turned out to be 16.7%. Also, the inhibition at 0.01 µM in data set [4] was found to be 1.1%.

`CN(C)CCn1c(=O)c2ccc3sc4ccccc4c4ccc(c1=O)c2c34` [compound 2, N-(N′,N′-dimethylaminoethyl)benzo[k, l]thioxanthene-3,4-dicarboximide] registered a melting point of 212 to 213 °C. Further, in data set [1], the inhibition at 100 µM turned out to be 95.1%, the inhibition at 10 µM was determined as 90.7%, the inhibition at 1 µM was 72.9% and the inhibition at 0.1 µM came out at 24.9%. Also, the inhibition at 0.01 µM in data set [1] was determined as 14.2%. Besides, in data set [2], the inhibition at 100 µM stood at 91.3%, the inhibition at 10 µM is 90.2%, the inhibition at 1 µM is 75.1% and the inhibition at 0.1 µM came to 50.2%. Further, the inhibition at 0.01 µM in data set [2] was found to be 16.9%. Also, in the data set with mice leukemia cell P388, the inhibition at 100 µM was 99.9%, the inhibition at 10 µM is 78.9%, the inhibition at 1 µM was 22.2% and the inhibition at 0.1 µM was 7.7%. Moreover, the inhibition at 0.01 µM in the data set on mice leukemia cell P388 came to 10.1%. In addition, in data set [3], the inhibition at 100 µM came out at 100%, the inhibition at 10 µM is 100%, the inhibition at 1 µM amounted to 97.7% and the inhibition at 0.1 µM worked out at 42.3%. For the same molecule, in data set [3], the inhibition at 0.01 µM was determined as 0%. In data set [4], the inhibition at 100 µM was found to be 96.2%, the inhibition at 10 µM was determined as 88%, the inhibition at 1 µM is 37.8% and the inhibition at 0.1 µM was found to be 28.5%. The inhibition at 0.01 µM in data set [4] came to 0.8%.

Molecule `CCCCn1c(=O)c2ccc3sc4ccccc4c4ccc(c1=O)c2c34` [compound 1, N-butyl benzo[k, l]thioxanthene-3,4-dicarboximide] yielded a melting point of 185 to 186 °C. Besides, in data set [1], the inhibition at 100 µM was 70.1%, the inhibition at 10 µM was 76.9%, the inhibition at 1 µM was 67% and the inhibition at 0.1 µM worked out at 3.7%. Also, the inhibition at 0.01 µM in data set [1] was found to be 6.6%. Also, in data set [2], the inhibition at 100 µM was 34.4%, the inhibition at 10 µM is 0%, the inhibition at 1 µM was 0% and the inhibition at 0.1 µM was 0%. Moreover, the inhibition at 0.01 µM in data set [2] came to 0%. Besides, in the data set on mice leukemia cell P388, the inhibition at 100 µM came to 51.7%, the inhibition at 10 µM was found to be 10.2%, the inhibition at 1 µM turned out to be 6.4% and the inhibition at 0.1 µM stood at 2.2%. In the data set on mice leukemia cell P388, the inhibition at 0.01 µM was 4.3%. In data set [3], the inhibition at 100 µM was 100%, the inhibition at 10 µM came to 98.5%, the inhibition at 1 µM came to 97.7% and the inhibition at 0.1 µM worked out at 77.4%. In addition, in data set [3], the inhibition at 0.01 µM stood at 1.1%. Further, in data set [4], the inhibition at 100 µM was 87.5%, the inhibition at 10 µM stood at 56.2%, the inhibition at 1 µM is 46% and the inhibition at 0.1 µM was 21.4%. Besides, the inhibition at 0.01 µM in data set [4] was determined as 9.8%.

Turning to `O=C1c2cccc3c2c(cc2c4ccccc4sc32)C(=O)N1CCN1CCNCC1` [compound 17, N-(2′-piperazinylethyl)benzo[b]thieno[2,1-c] naphthalimide], the melting point was 226 to 228 °C. In data set [2], the inhibition at 100 µM was 91.1%, the inhibition at 10 µM is 95.4%, the inhibition at 1 µM turned out to be 46.8% and the inhibition at 0.1 µM is 0%. Besides, in data set [2], the inhibition at 0.01 µM is 1.7%. For the same molecule, in the data set on mice leukemia cell P388, the inhibition at 100 µM came out at 100%, the inhibition at 10 µM came to 100%, the inhibition at 1 µM stood at 23.9% and the inhibition at 0.1 µM turned out to be 4.5%. For the same molecule, in the data set on mice leukemia cell P388, the inhibition at 0.01 µM is 2%.

For the molecule `CN(C)CCCN1C(=O)c2cccc3c2c(cc2c4ccccc4sc32)C1=O` [compound 18, N-(N′,N′-dimethylaminopropyl)benzo[b]thieno[2,1-c] naphthalimide], the melting point lay in the range of 168 to 170 °C. Moreover, in data set [2], the inhibition at 100 µM is 95.3%, the inhibition at 10 µM worked out at 96.9%, the inhibition at 1 µM was 81.1% and the inhibition at 0.1 µM is 47.2%. Also, the inhibition at 0.01 µM in data set [2] was 1.7%. Moreover, in the data set on mice leukemia cell P388, the inhibition at 100 µM is 100%, the inhibition at 10 µM is 100%, the inhibition at 1 µM was found to be 29.8% and the inhibition at 0.1 µM came to 17.1%. The inhibition at 0.01 µM with mice leukemia cell P388 came out at 5.5%.

As for `Cc1ccc(-c2nc3cc4c5c(cccc5c3s2)C(=O)N(CCN(C)C)C4=O)cc1` [compound 6, N-(N′,N′-dimethylaminoethyl)-4H, 6H-9-p-methylphenyl-benzo[d, e]thiazol[5,4-g]isoquinoline4,6-diketone], the melting point was 202 to 203 °C. Further, in data set [2], the inhibition at 100 µM was 95.8%, the inhibition at 10 µM is 92.3%, the inhibition at 1 µM came to 52.7% and the inhibition at 0.1 µM turned out to be 31.5%. Besides, the inhibition at 0.01 µM in data set [2] came to 7.1%. Also, in the data set on mice leukemia cell P388, the inhibition at 100 µM was 96%, the inhibition at 10 µM stood at 74.7%, the inhibition at 1 µM was found to be 47.7% and the inhibition at 0.1 µM was 29.3%. Also, in the data set with mice leukemia cell P388, the inhibition at 0.01 µM amounted to 13%.
